# In US20040043403A1, “Process for determining the biological activity of epidermal growth factor receptor tyrosine kinase inhibitors” (priority 2000, published 2004):
# Assays:
# A431 cells [1] = assay: UniGEM 1 cDNA array expression profile of A431 cells; type: cell-based, human; conditions: 24 hours, versus DMSO treated cells
# Protocol: The following tissue culture cells are chosen because of their EGFR expression status (Table 1). EGFR expression is measured by Western blotting, using anti-EGFR monoclonal antibodies from Transduction Labs (Lexington, Ky.). The cell lines are obtained from the ATCC (Rockville, […].). The cells are cultured in 5% CO2 at 37° C.
# 20 million tissue culture cells (about 80% confluent) or 200 million WBCs are incubated for 2 or 24 h in culture medium containing 3 μM of an EGFR tyrosine kinase inhibitor or 0.03% DMSO. Total RNA from cell pellet is isolated using the RNeasy kit (Qiagen). mRNA is isolated using the oligotex mRNA purification kit (Qiagen). The quality of the obtained mRNA is tested by real time RT-PCR using beta-Actin primers (PE Applied Biosystems) with an amplicon size of 300 base pairs (bp). The total RNA is used as a reference to calculate the amount of mRNA-enrichment in the oligotex purified samples.
# Probes for the UniGEM hybridization are synthesized by Incyte Genomics (Palo Alto, Calif., USA). For each probe 200 ng mRNA (50 ng/μl) is shipped in dry ice. The results are analyzed using the Expressionist Software Package provided by GeneData.
# Expression profiles (UniGEM V arrays) of 4 tumor cell lines with different EGFR expression status (A431, NCI-H596, NCI-H520 and MDA-MB-468) and of WBCs upon exposure of cells to 3 μM of COMPOUND A for 2 or 24 h are analyzed. As control, cells treated with DMSO for the same time period are used. […] The cDNA array hybridization is repeated with the UniGEM 1 array using the same mRNA (Table 3).
# A431 cells [2] = assay: Real time RT-PCR gene expression in A431 cells; type: cell-based, human
# Protocol: 20 million tissue culture cells (about 80% confluent) or 200 million WBCs are incubated for 2 or 24 h in culture medium containing 3 μM of an EGFR tyrosine kinase inhibitor or 0.03% DMSO. Total RNA from cell pellet is isolated using the RNeasy kit (Qiagen). mRNA is isolated using the oligotex mRNA purification kit (Qiagen). The quality of the obtained mRNA is tested by real time RT-PCR using beta-Actin primers (PE Applied Biosystems) with an amplicon size of 300 base pairs (bp). The total RNA is used as a reference to calculate the amount of mRNA-enrichment in the oligotex purified samples. 2 million A431 cells at about 80% confluency are treated with an EGFR tyrosine kinase inhibitor (100, 300 or 3000 nM) or 0.03% DMSO and incubated for 4, 8, 16 or 24 h. Total RNA is isolated using the RNeasy kit. The primers and probes are designed from mRNA sequences within the coding region or in the 3′ untranslated region (Table 2). For real time RT-PCR, RNA concentrations between 1 and 50 ng/reaction are used to obtain signals between 15-35 cycles. For each RNA preparation RT-PCR reactions are performed with and without reverse transcriptase to check for genomic DNA contamination. In all RNA samples tested, genomic DNA contamination is less than 1%. To normalize for variability in the initial concentration and quality of the total RNA, Glyceraldehyde-3-phosphate dehydrogenase (GAPDH) is used as an endogenous reference in all quantification experiments. For RT-PCR a one step, two-enzyme system is chosen. The TaqMan PCR Core Reagent Kit (PE #N808-0228) plus the reverse transcriptase MuLV (PE Biosystems # N808-0018) and RNase inhibitor (Roche Diagnostics # 799 025) are mixed as described in the manufacturers protocol. Triplicate measurements are done for target and for reference reactions. […] RT-PCR reactions are done with RNA concentrations of 2.5, 5, 10, 20, 40 and 80 ng per reaction. The absolute value of the slope of (log input amount) vs. ΔCT should be <0.1. The ΔCT value is determined by subtracting the average reference CT values from the average target CT values of the three measurements. Relative quantification is performed in triplicates, reference and target, using the RT-PCR protocol described above.
# [3] = A431, 3 μM, 24 h, relative to DMSO-treated NCI-H520 calibrator
# [4] = A431 cells, 3 μM, 24 hours, Experiment 1
# [5] = A431 cells, 3 μM, 24 hours, Experiment 2
# [6] = A431 cells, 3 μM, 24 hours, Experiment 3
smiles,measurement,setting,value
"C[C@@H](Nc1ncnc2[nH]c(-c3ccc(O)cc3)cc12)c1ccccc1 [COMPOUND A, (R)-6-(4-hydroxy-phenyl)-4-[(1-phenyl-ethyl)-amino]-7H-pyrrolo[2,3-d]pyrimidine]",Differential Expression (Balanced): ESTs {IM23605},"A431 cells [1]; GB Acc. No. R39436, 3 μM",2.6
same,Differential Expression (Balanced): PUTATIVE LYMPHOCYTE G0/G1 SWITCH PROTEIN 2 {IM67939},"A431 cells [1]; GB Acc. No. T52813, 3 μM, negative numbers: repressed genes",−3.3
same,Differential Expression (Balanced): ESTs {IM73785},"A431 cells [1]; GB Acc. No. T54672, 3 μM",2.6
same,Differential Expression (Balanced): ESTs {IM74546},"A431 cells [1]; GB Acc. No. T59122, 3 μM",2.9
same,Differential Expression (Balanced): Human mitosin mRNA; complete cds. {IM113765},"A431 cells [1]; GB Acc. No. T76993, 3 μM, negative numbers: repressed genes",−3.0
same,Differential Expression (Balanced): DNA-BINDING PROTEIN INHIBITOR ID-3 {IM323946},"A431 cells [1]; GB Acc. No. W46413, 3 μM",2.1
same,Differential Expression (Balanced): Human nuclear orphan receptor LXR-alpha {IM357775},"A431 cells [1]; GB Acc. No. W95433, 3 μM, negative numbers: repressed genes",−3.0
same,Relative Clusterin expression,A431 cells [2]; [3],247.28 n-fold
same,Relative TRAIL expression,A431 cells [2]; [3],99.50 n-fold
same,Relative VAC-beta expression,A431 cells [2]; [3],57.20 n-fold
same,"Induction of clusterin gene expression, dose and time dependency (FIGS. 1A and 1B)","A431 cells [2]; A431 cells, 100 nM, 300 nM and 3 μM, 4 to 24 h, real time RT-PCR",shows dose and time dependency
same,"Gene induction, Real time RT-PCR Experiment 1: Acute phase serum amyloid A protein",A431 cells [2]; [4],6.6
same,"Gene induction, Real time RT-PCR Experiment 1: Cathepsin H",A431 cells [2]; [4],5.2
same,"Gene induction, Real time RT-PCR Experiment 1: Caveolin",A431 cells [2]; [4],2.8 ± 0.2
same,"Gene induction, Real time RT-PCR Experiment 1: Complement component 3 (C3)",A431 cells [2]; [4],5.6
same,"Gene induction, Real time RT-PCR Experiment 1: Complement cytolysis inibitor (Clusterin)",A431 cells [2]; [4],11.2 ± 2.0
same,"Gene induction, Real time RT-PCR Experiment 1: DNA binding protein inhibitor ID-3",A431 cells [2]; [4],4.4
same,"Gene induction, Real time RT-PCR Experiment 1: Extracellular protein S1-5",A431 cells [2]; [4],3.2 ± 1.7
same,"Gene induction, Real time RT-PCR Experiment 1: TGF-beta induced gene",A431 cells [2]; [4],5.2
same,"Gene induction, Real time RT-PCR Experiment 1: TRAIL",A431 cells [2]; [4],7.8 ± 1.6
same,"Gene induction, Real time RT-PCR Experiment 1: VAC-beta (annexin VIII)",A431 cells [2]; [4],2.8 ± 1.5
same,"Gene induction, Real time RT-PCR Experiment 2: Acute phase serum amyloid A protein",A431 cells [2]; [5],2.5 ± 1.1
same,"Gene induction, Real time RT-PCR Experiment 2: Cathepsin H",A431 cells [2]; [5],2.6 ± 0.9
same,"Gene induction, Real time RT-PCR Experiment 2: Caveolin",A431 cells [2]; [5],1.5 ± 0.4
same,"Gene induction, Real time RT-PCR Experiment 2: Complement component 3 (C3)",A431 cells [2]; [5],2.5 ± 0.4
same,"Gene induction, Real time RT-PCR Experiment 2: Complement cytolysis inibitor (Clusterin)",A431 cells [2]; [5],5.2 ± 1.4
same,"Gene induction, Real time RT-PCR Experiment 2: DNA binding protein inhibitor ID-3",A431 cells [2]; [5],2.2 ± 0.1
same,"Gene induction, Real time RT-PCR Experiment 2: Extracellular protein S1-5",A431 cells [2]; [5],1.7 ± 0.2
same,"Gene induction, Real time RT-PCR Experiment 2: TRAIL",A431 cells [2]; [5],4.1 ± 1.4
same,"Gene induction, Real time RT-PCR Experiment 2: VAC-beta (annexin VIII)",A431 cells [2]; [5],2.4 ± 0.9
same,"Gene induction, Real time RT-PCR Experiment 3: Acute phase serum amyloid A protein",A431 cells [2]; [6],3.3
same,"Gene induction, Real time RT-PCR Experiment 3: Cathepsin H",A431 cells [2]; [6],2.1
same,"Gene induction, Real time RT-PCR Experiment 3: Caveolin",A431 cells [2]; [6],2.6
same,"Gene induction, Real time RT-PCR Experiment 3: Complement component 3 (C3)",A431 cells [2]; [6],2.0
same,"Gene induction, Real time RT-PCR Experiment 3: Complement cytolysis inibitor (Clusterin)",A431 cells [2]; [6],6.2
same,"Gene induction, Real time RT-PCR Experiment 3: DNA binding protein inhibitor ID-3",A431 cells [2]; [6],2.4
same,"Gene induction, Real time RT-PCR Experiment 3: Extracellular protein S1-5",A431 cells [2]; [6],1.2 ± 0.5
same,"Gene induction, Real time RT-PCR Experiment 3: TRAIL",A431 cells [2]; [6],5.7 ± 0.03
same,"Gene induction, Real time RT-PCR Experiment 3: VAC-beta (annexin VIII)",A431 cells [2]; [6],2.5 ± 0.8
